Data as given in patent US20160303056A1, “FASTING MIMICKING DIET (FMD) AND GLUCOSE LOWERING DRUGS PROTECT NORMAL CELLS AND GENERATE CANCER SENSITIZING CONDITIONS IN RESPONSE TO STANDARD AND HIGH GLUCOSE CONDITIONS INDUCED BY RAPAMYCIN AND DEXAMETHASONE” (UNIVERSITY OF SOUTHERN CALIFORNIA, priority 2015, published 2016).

What was measured:
[1] = tested on: C57BL/6 mice; details: mouse, in vivo
[2] = Circulating glucose levels in mice given rapamycin or dexamethasone, with or without insulin, STS or FMD; type: in vivo, mouse (C57BL/6); details: rapamycin or dexamethasone ip daily for 14 days, compared with ad lib (FIG. 1B)
[3] = Blood glucose levels in mice injected ip with metformin; type: in vivo, mouse; details: metformin 50 mg/kg ip, saline for control mice (FIG. 1E)

Structure (SMILES) | sensitization of mice to chemotherapy (mortality) [1] | circulating glucose levels [2] | circulating glucose levels [3]
CO[C@H]1C[C@@H]2CC[C@@H](C)[C@@](O)(O2)C(=O)C(=O)N2CCCC[C@H]2C(=O)O[C@H]([C@H](C)C[C@@H]2CC[C@@H](O)[C@H](OC)C2)CC(=O)[C@H](C)/C=C(\C)[C@@H](O)[C@@H](OC)C(=O)[C@H](C)C[C@H](C)/C=C/C=C/C=C/1C [rapamycin] | increased mortality | caused an increase in glucose levels | –
C[C@@H]1C[C@H]2[C@@H]3CCC4=CC(=O)C=C[C@]4(C)[C@@]3(F)[C@@H](O)C[C@]2(C)[C@@]1(O)C(=O)CO [dexamethasone] | increased mortality | caused an increase in glucose levels | –
CN(C)C(=N)NC(=N)N [Metformin, N,N-Dimethylimidodicarbonimidic diamide] | – | – | reducing circulating glucose levels
